Assay results as given in patent US9637469B2, “Pyridine derivative” (Teijin Pharma Limited, priority 2012, dated 2017).

Target: T1, human URAT1 (Homo sapiens, UniProt Q96S37)
T1 construct: Full-length cDNA of human URAT1 (hURAT1)
T1 sequence (Q96S37 1-553): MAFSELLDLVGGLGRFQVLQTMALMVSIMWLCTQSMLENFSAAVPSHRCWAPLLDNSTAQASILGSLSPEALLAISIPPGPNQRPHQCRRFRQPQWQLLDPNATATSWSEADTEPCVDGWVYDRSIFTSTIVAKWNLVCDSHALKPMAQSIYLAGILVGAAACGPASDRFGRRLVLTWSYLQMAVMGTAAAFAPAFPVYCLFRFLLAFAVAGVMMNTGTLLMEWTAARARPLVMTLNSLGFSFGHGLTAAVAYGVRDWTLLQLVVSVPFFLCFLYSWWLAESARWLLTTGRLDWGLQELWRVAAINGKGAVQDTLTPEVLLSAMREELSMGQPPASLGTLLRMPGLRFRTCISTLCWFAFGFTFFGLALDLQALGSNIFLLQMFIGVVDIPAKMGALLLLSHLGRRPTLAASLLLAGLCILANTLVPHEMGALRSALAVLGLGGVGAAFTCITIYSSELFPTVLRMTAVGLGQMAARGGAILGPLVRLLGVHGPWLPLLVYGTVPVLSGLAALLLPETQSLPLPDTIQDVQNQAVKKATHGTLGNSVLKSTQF
Test: Test for inhibition of uric acid transport using human URAT1-expressing cells;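 also: three stars up to 0.2 µM two stars 0.2-2 µM one star 2-20 µM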
Type: cell-based
Settings: HEK 293 cells expressing human URAT1, 14C-labeled uric acid 25 μM, uptake 37° C. for 5 min; for IC50: read-out: Inhibitory Activity (IC50 of uric acid transport inhibition)
Method in brief: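 IC50 values reflect inhibition of ¹⁴C-uric acid uptake (25 μM final, 5 min, 37 °C) by compound. Cells were HEK293 stably expressing full-length human URAT1, preincubated in Na-gluconate-substituted HBSS. Radioactivity in lysates was expressed relative to DMSO control as 100%.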

Row | Compound | Inhibitory Activity (IC50 of uric acid transport inhibition) | IC50 [µM]
1 | O=C(O)c1ccc(-c2cncc(Cl)c2)n1Cc1cccc2ccsc12 [Compound B23, 1-(benzo[b]thiophen-7-ylmethyl)-2-(5-chloropyridin-3-yl)-1H-pyrrole-5-carboxylic acid] | * * * | 
2 | O=C(O)/C=C/c1cnc(-c2cccnc2)n1Cc1cccc2ccccc12 [Compound A259] |  | 2 to 20
3 | O=C(O)c1ccc(-c2cccnc2)n1Cc1cccc2ccsc12 [Compound B20, 1-(benzo[b]thiophen-7-ylmethyl)-2-(pyridin-3-yl)-1H-pyrrole-5-carboxylic acid] | * * * | 
4 | O=C(NS(=O)(=O)C1CC1)c1ccc(-c2cccnc2)n1Cc1cccc2ccccc12 [Compound B25, N-(cyclopropylsulfonyl)-1-(naphthalen-1-ylmethyl)-2-(pyridin-3-yl)-1H-pyrrole-5-carboxamide] | * * * | 
5 | O=C(O)c1c(C2CC2)nc(-c2cncc(Cl)c2)n1Cc1cccc2ccsc12 [Compound A236, 1-(benzo[b]thiophen-7-ylmethyl)-2-(5-chloropyridin-3-yl)-4-cyclopropyl-1H-imidazole-5-carboxylic acid] | * * * | 
6 | O=C(O)c1nc(-c2cncc(Cl)c2)n(Cc2cc(Cl)ccc2Cl)c1C(=O)O [Compound A210, 2-(5-chloropyridin-3-yl)-1-(2,5-dichlorobenzyl)-1H-imidazole-4,5-dicarboxylic acid] | * * * | 
7 | Cc1nc(-c2cccnc2)n(Cc2cccc3ccsc23)c1C(=O)NS(C)(=O)=O [Compound A115] |  | 2 to 20
8 | O=C(O)c1cnc(-c2cccnc2)n1Cc1cc(Cl)ccc1Cl [Compound A45, 1-(2,5-dichlorobenzyl)-2-(pyridin-3-yl)-1H-imidazole-5-carboxylic acid] | * * * | 
9 | CC(C)(Sc1ncc(-c2cccnc2)n1Cc1cc(Cl)ccc1Cl)C(=O)O [Compound A264] |  | 2 to 20
10 | Cc1ccc(Cn2c(-c3cccnc3)nc(Cl)c2C(=O)O)c2ccccc12 [Compound A23, 4-chloro-1-((4-methylnaphthalen-1-yl)methyl)-2-(pyridin-3-yl)-1H-imidazole-5-carboxylic acid] | * * | 
11 | O=C(O)c1c(Cn2ccnc2)nc(-c2cncc(Cl)c2)n1Cc1cc(Cl)ccc1Cl [Compound A199, 4-((1H-imidazol-1-yl)methyl)-2-(5-chloropyridin-3-yl)-1-(2,5-dichlorobenzyl)-1H-imidazole-5-carboxylic acid] | * * | 
12 | CN1CCN(Cc2nc(-c3cncc(Cl)c3)n(Cc3cc(Cl)ccc3Cl)c2C(=O)O)CC1 [Compound A197, 2-(5-chloropyridin-3-yl)-1-(2,5-dichlorobenzyl)-4-((4-methylpiperazine-1-yl)methyl)-1H-imidazole-5-carboxylic acid] | * * * | 
13 | CCC(O)(CC)c1nc(-c2cccnc2)n(Cc2cc(Cl)ccc2Cl)c1C(=O)O [Compound A109, 1-(2,5-dichlorobenzyl)-4-(3-hydroxypentan-3-yl)-2-(pyridin-3-yl)-1H-imidazole-5-carboxylic acid] | * * | 
14 | O=C(O)c1c(-c2ccc(F)cc2)nc(-c2cccnc2)n1Cc1cc(Cl)ccc1Cl [Compound A93, 1-(2,5-dichlorobenzyl)-4-(4-fluorophenyl)-2-(pyridin-3-yl)-1H-imidazole-5-carboxylic acid] | * * * | 
15 | Cc1nc(-c2cncc(Cl)c2)n(Cc2sc(Cl)cc2Cl)c1C(=O)O [Compound A229, 2-(5-chloropyridin-3-yl)-1-((2,4-dichlorothiophen-5-yl)methyl)-4-methyl-1H-imidazole-5-carboxylic acid] | * * | 
16 | CSc1cncc(-c2nc(C)c(C(=O)O)n2Cc2cc(Cl)ccc2Cl)c1 [Compound A182, 1-(2,5-dichlorobenzyl)-4-methyl-2-(5-(methylthio)pyridin-3-yl)-1H-imidazole-5-carboxylic acid] | * * * | 
17 | O=C(O)c1c(C(F)(F)F)nc(-c2cccnc2)n1Cc1cccc2cccc(Br)c12 [Compound A28] |  | 2 to 20

Row | Compound | Inhibitory Activity (IC50 of uric acid transport inhibition) | IC50 [µM]
18 | CC(C)(Sc1ncc(-c2cncc(Cl)c2)n1Cc1cc(Cl)ccc1Cl)C(=O)O [Compound A266, 2-((5-(5-chloropyridin-3-yl)-1-(2,5-dichlorobenzyl)-1H-imidazol-2-yl)thio)-2-methylpropanoic acid] | * * | 
19 | Cc1nc(-c2cncc(OCC3CCCCC3)c2)n(Cc2cc(Cl)ccc2Cl)c1C(=O)O [Compound A189, 2-(5-(cyclohexylmethoxy)pyridin-3-yl)-1-(2,5-dichlorobenzyl)-4-methyl-1H-imidazole-5-carboxylic acid] | * * | 
20 | Cc1nc(-c2cccnc2)n(Cc2cc(C(F)(F)F)ccc2Cl)c1C(=O)O [Compound A43, 1-(2-chloro-5-(trifluoromethyl)benzyl)-4-methyl-2-(pyridin-3-yl)-1H-imidazole-5-carboxylic acid] | * * * | 
21 | CC(C)c1nc(-c2cncc(F)c2)n(Cc2cc(Cl)ccc2Cl)c1C(=O)O [Compound A154, 1-(2,5-dichlorobenzyl)-2-(5-fluoropyridin-3-yl)-4-isopropyl-1H-imidazole-5-carboxylic acid] | * * * | 
22 | Cc1cncc(-c2ccc(/C=C/C(=O)O)n2Cc2cc(Cl)ccc2Cl)c1 [Compound B34, (E)-3-(1-(2,5-dichlorobenzyl)-2-(5-methylpyridin-3-yl)-1H-pyrrol-5-yl)acrylic acid] | * * * | 
23 | Cc1nc(-c2cncc(O)c2)n(Cc2cc(Cl)ccc2Cl)c1C(=O)O [Compound A172, 1-(2,5-dichlorobenzyl)-2-(5-hydroxypyridin-3-yl)-4-methyl-1H-imidazole-5-carboxylic acid] | * * | 
24 | Cc1cncc(-c2nc(C)c(C(=O)O)n2C(C)c2cc(Cl)ccc2Cl)c1 (stereo not shown) [Compound A224] |  | 2 to 20
25 | O=C(O)c1c(Br)nc(-c2cccnc2)n1Cc1cc(Cl)ccc1Cl [Compound A89, 4-bromo-1-(2,5-dichlorobenzyl)-2-(pyridin-3-yl)-1H-imidazole-5-carboxylic acid] | * * * | 
26 | Cc1ccc(Oc2nc(-c3cccnc3)n(Cc3cc(Cl)ccc3Cl)c2C(=O)O)cc1 [Compound A99, 1-(2,5-dichlorobenzyl)-2-(pyridin-3-yl)-4-(p-tolyloxy)-1H-imidazole-5-carboxylic acid] | * * * | 
27 | Cc1nc(Oc2cccnc2Cl)n(Cc2cc(Cl)ccc2Cl)c1C(=O)O [Compound A253, 2-((2-chloropyridin-3-yl)oxy)-1-(2,5-dichlorobenzyl)-4-methyl-1H-imidazole-5-carboxylic acid] | * * * | 
28 | O=C(NS(=O)(=O)C1CC1)c1c(C2CC2)nc(-c2cccnc2)n1Cc1cccc2ccsc12 [Compound A118, 1-(benzo[b]thiophen-7-ylmethyl)-4-cyclopropyl-N-(cyclopropylsulfonyl)-2-(pyridin-3-yl)-1H-imidazole-5-carboxamide] | * * | 
29 | Cc1nc(-c2ccc(N(C)C)nc2)n(Cc2cc(Cl)ccc2Cl)c1C(=O)O [Compound A163] |  | 2 to 20
30 | Cc1nc(-c2cccnc2)n(Cc2csc3cccc(C(F)(F)F)c23)c1C(=O)O [Compound A6, 4-methyl-2-(pyridin-3-yl)-1-((4-(trifluoromethyl)benzo[b]thiophen-3-yl)-methyl)-1H-imidazole-5-carboxylic acid] | * * | 
31 | CS(=O)(=O)N1CCN(Cc2nc(-c3cncc(Cl)c3)n(Cc3cc(Cl)ccc3Cl)c2C(=O)O)CC1 [Compound A203, 2-(5-chloropyridin-3-yl)-1-(2,5-dichlorobenzyl)-4-((4-(methylsulfonyl)piperazin-1-yl)methyl)-1H-imidazole-5-carboxylic acid] | * * | 
32 | Cc1nc(-c2cccnc2F)n(Cc2cc(Cl)ccc2Cl)c1C(=O)O [Compound A160, 1-(2,5-dichlorobenzyl)-2-(2-fluoropyridin-3-yl)-4-methyl-1H-imidazole-5-carboxylic acid] | * * | 
33 | C[S+]([O-])c1nc(-c2cccnc2)n(Cc2cc(Cl)ccc2Cl)c1C(=O)O (stereo not shown) [Compound A106] |  | 2 to 20
34 | Cc1nc(-c2cccnc2)n(Cc2c(F)cccc2Cl)c1C(=O)O [Compound A72] |  | 2 to 20
